Reference: patent US20030139391A1 (priority 2000, published 2003)
Marks after values point to notes of the source that are not given here.

Columns and labels:
Format in all cases: in vivo, human
[1] = test system: Patients diagnosed with Alzheimer's Disease; test: ADAS-cog/11 in 5-month slow-titration trial
Excerpt: (§1) Subjects in the Placebo group received 21 weeks (5 months) of placebo medication.
All patients were monitored throughout the study, with follow-up and cognitive evaluation at four weeks, three months and five months after the start of the study.
The ADAS consists of two parts—a cognitive subscale and a behavioral subscale. The behavioral subscale was not be used in this study. The cognitive subscale, the ADAS—cog-11, consisted of Word Recall and Word Recognition memory tests, Object and Finger Naming, Commands, Constructional Praxis, Ideational Praxis, Orientation, Remembering Test Instructions, Spoken language Ability, Comprehension of Spoken language and Word Finding Difficulty was the primary variable in this study.
To reduce variability due to circadian fluctuations in cognitive status the ADAS was done always at the same time of the day, preferably before noon. Only a trained ADAS rater performed the test. Ideally the ADAS rater was not involved in the treatment of the subject and should have no access to AE (adverse event) reporting.
The ADAS was performed at visits 1, 2, 3, 4 and 5 (screening, baseline, week 4, week 13 and month 5 or upon early discontinuation of trial medication intake). For word recall and word recognition two parallel wordlists, list A and list B were employed. List A was used at visits 1 and 3, List B at visits 2, 4, and 5 or upon early discontinuation of trial medication intake. For practical reasons the words for word recognition was presented only once. The total score of the 11 cognitive items on the original ADAS cognitive subscale (ADAS-cog/11, Range: 0-70) was recorded.
For continuous data, a two-way analysis of variance (ANOVA) model with treatment and investigator as factors were used to compare the treatment groups for the change from baseline data. The interaction between treatment and investigator was examined. The impact of the baseline score on change from baseline was evaluated. […] If the parametric methods were deemed inappropriate (normality assumption violated), nonparametric methods such as two-way ANOVA on ranked data, Van Elteren test, controlling for investigator, was used. Following ANOVA, Fisher's LSD procedure was used for pairwise comparisons between each galanthamine group and the placebo group. A linear contrast on the main effect for treatment was used to test the dose response relationship.

[2] = test system: Patients diagnosed with Alzheimer's Disease; test: CIBIC-plus in 5-month slow-titration trial
Procedure: as §1
The CIBIC-plus score was a second primary variable. An independent, experienced and properly trained clinician provided a global impression of the subject's deterioration or improvement over the course of the trial, based on separate interviews with the subject and caregivers. If helpful, the CIBIC rater audiotaped or videotaped the baseline interview for future reference.
The CIBIC-plus was performed at visit 2, 3, 4, and 5 (baseline, week 4, week 13, and month 5 or upon early discontinuation of trial medication intake). Only a trained CIBIC rater performed the test.
For ordinal categorical variables such as the CIBIC-plus score, the Van Elteren test controlling for investigator was used for the between group comparison. For the nominal data (e.g., events rates), the Cochran-Mantel-Haenszel test for general association controlling for investigator was used. A linear contrast on the proportion of patients that stay the same or improve was used to test for increasing response with increasing dose.

[3] = test system: Patients diagnosed with Alzheimer's Disease; test: ADCS/ADL scale in 5-month slow-titration trial
Excerpt: as §1
The ADCS/ADL scale is a 23-item informant-based assessment scale measuring widely applicable daily activities appropriate for patients in the mild to moderate category of Alzheimer's Disease. The 23 items were selected for measurement from the larger set of 45 items studied by Galasko et al (Alzheimer Disease and Associated Disorders, Vol 11, Suppl. 2, 1997). These individual items were scored from 0-3 to […], depending on the question, with a possible total score of 78. A higher score indicated a higher functioning patient.
An additional secondary indication captures overall changes in Activities of daily Living (ADL) performances as measured by the Alzheimer's Disease Cooperative Study Activities of Daily Living (ACDS/ADL) scale. As mentioned above this scale is comprised of 23 items that have been tested and validated in patients with mild to moderately severe Alzheimer's disease.

`COc1ccc2c3c1O[C@H]1C[C@@H](O)C=C[C@@]31CCN(C)C2` [GAL, galantamine] was tested, and the “Responders, ADAS-cog/11 change ≦ 0 points at Month 5: %” value ([1]; 8 mg/day) was 46.5%, the “Responders, ADAS-cog/11 change ≦ 0 points at Month 5: n” value ([1]; 8 mg/day) was 47 and the “Responders, ADAS-cog/11 change ≦ −4 points at Month 5: %” value ([1]; 8 mg/day) was 25.7%. For the same molecule, the “Responders, ADAS-cog/11 change ≦ −4 points at Month 5: n” value ([1]; 8 mg/day) was 26, the “Responders, ADAS-cog/11 change ≦ −7 points at Month 5: %” value ([1]; 8 mg/day) was 13.9% and the “Responders, ADAS-cog/11 change ≦ −7 points at Month 5: n” value ([1]; 8 mg/day) was 14. For the same molecule, the “Responders, ADAS-cog/11 change ≦ −10 points at Month 5: %” value ([1]; 8 mg/day) was 5.9%, the “Responders, ADAS-cog/11 change ≦ −10 points at Month 5: n” value ([1]; 8 mg/day) was 6 and the “Responders, ADAS-cog/11 change ≦ 0 points at Month 5: %” value ([1]; 16 mg/day) was 65.4%. For the same molecule, the “Responders, ADAS-cog/11 change ≦ 0 points at Month 5: n” value ([1]; 16 mg/day) was 136, the “Responders, ADAS-cog/11 change ≦ −4 points at Month 5: %” value ([1]; 16 mg/day) was 35.6% and the “Responders, ADAS-cog/11 change ≦ −4 points at Month 5: n” value ([1]; 16 mg/day) was 74. For the same molecule, the “Responders, ADAS-cog/11 change ≦ −7 points at Month 5: %” value ([1]; 16 mg/day) was 15.9%, the “Responders, ADAS-cog/11 change ≦ −7 points at Month 5: n” value ([1]; 16 mg/day) was 33 and the “Responders, ADAS-cog/11 change ≦ −10 points at Month 5: %” value ([1]; 16 mg/day) was 7.2%. For the same molecule, the “Responders, ADAS-cog/11 change ≦ −10 points at Month 5: n” value ([1]; 16 mg/day) was 15, the “Responders, ADAS-cog/11 change ≦ 0 points at Month 5: %” value ([1]; 24 mg/day) was 64.9% and the “Responders, ADAS-cog/11 change ≦ 0 points at Month 5: n” value ([1]; 24 mg/day) was 137. For the same molecule, the “Responders, ADAS-cog/11 change ≦ −4 points at Month 5: %” value ([1]; 24 mg/day) was 37.0%, the “Responders, ADAS-cog/11 change ≦ −4 points at Month 5: n” value ([1]; 24 mg/day) was 78 and the “Responders, ADAS-cog/11 change ≦ −7 points at Month 5: %” value ([1]; 24 mg/day) was 22.3%. For the same molecule, the “Responders, ADAS-cog/11 change ≦ −7 points at Month 5: n” value ([1]; 24 mg/day) was 47, the “Responders, ADAS-cog/11 change ≦ −10 points at Month 5: %” value ([1]; 24 mg/day) was 10.4% and the “Responders, ADAS-cog/11 change ≦ −10 points at Month 5: n” value ([1]; 24 mg/day) was 22. The “Change from baseline in ADAS-cog/11 at Month 5, Mean (SE)” value (“Change from baseline … (SE)” below) ([1]; LOCF, 8 mg/day, no titration) was 0.4 (0.52)▪, the “Change from baseline … (SE)” value ([1]; LOCF, 16 mg/day after 4-week titration) was −1.4 (0.35)***^♭ and the “Change from baseline … (SE)” value ([1]; LOCF, 24 mg/day after 8-week titration) was −1.4 (0.39)***^♭. For the same molecule, the “Change from baseline … (SE)” value ([1]; observed case, 8 mg/day, no titration) was 0.1 (0.58)*, the “Change from baseline … (SE)” value ([1]; observed case, 16 mg/day after 4-week titration) was −1.5 (0.40)***^† and the “Change from baseline … (SE)” value ([1]; observed case, 24 mg/day after 8-week titration) was −1.8 (0.44)***^†. For the same molecule, the “CIBIC-plus at Month 5, Improved/no change: %” value ([2]; LOCF, 8 mg/day) was 53%, the “CIBIC-plus at Month 5, Improved/no change: n” value ([2]; LOCF, 8 mg/day) was 68 and the “CIBIC-plus at Month 5, Improved/no change: %” value ([2]; LOCF, 16 mg/day) was 66%. The “CIBIC-plus at Month 5, Improved/no change: n” value ([2]; LOCF, 16 mg/day) was 169, the “CIBIC-plus at Month 5, Improved/no change: %” value ([2]; LOCF, 24 mg/day) was 64% and the “CIBIC-plus at Month 5, Improved/no change: n” value ([2]; LOCF, 24 mg/day) was 162. For the same molecule, the “CIBIC-plus at Month 5, Improved/no change: %” value ([2]; observed case, 8 mg/day) was 51%, the “CIBIC-plus at Month 5, Improved/no change: n” value ([2]; observed case, 8 mg/day) was 54 and the “CIBIC-plus at Month 5, Improved/no change: %” value ([2]; observed case, 16 mg/day) was 68%. The “CIBIC-plus at Month 5, Improved/no change: n” value ([2]; observed case, 16 mg/day) was 143, the “CIBIC-plus at Month 5, Improved/no change: %” value ([2]; observed case, 24 mg/day) was 64% and the “CIBIC-plus at Month 5, Improved/no change: n” value ([2]; observed case, 24 mg/day) was 136. The “Change in Total ADL score from baseline at Month 5, Mean (SE)” value (from here on “Change in Total ADL score … (SE)”) ([3]; LOCF, 8 mg/day) was −3.2 (0.79), the “Change in Total ADL score … (SE)” value ([3]; LOCF, 24 mg/day) was −1.5 (0.56)** and the “Change in Total ADL score … (SE)” value ([3]; observed case, 8 mg/day) was −3.1 (0.91). For the same molecule, the “Change in Total ADL score … (SE)” value ([3]; observed case, 16 mg/day) was −0.5 (0.55)***^† and the “Change in Total ADL score … (SE)” value ([3]; observed case, 24 mg/day) was −1.6 (0.61)**.
